Holding throughout (format): functional
Assay [1] has as its system Agrobacterium tumefaciens. Kind of assay: Antitumor activity against Agrobacterium tumefaciens B6-induced tumor formation at 10 ug/disk after 12 days by potato disk assay. Particulars: B6, 288 h.
Assay [2] relates to Agrobacterium tumefaciens. Kind of assay: Antitumor activity against Agrobacterium tumefaciens B6-induced tumor formation at 5 ug/disk after 12 days by potato disk assay. To be noted: B6, 288 h.
Assay [3] deals with Agrobacterium tumefaciens. Kind of assay: Antitumor activity against Agrobacterium tumefaciens B6-induced tumor formation at 2.5 ug/disk after 12 days by potato disk assay. To be noted: B6, 288 h.
The subject of the next assay is P388. Kind of assay: Antitumor activity against mouse P388 cells xenografted mouse assessed as increase in life span relative to control.
The subject of assay [4] is Agrobacterium tumefaciens. Kind of assay: Antitumor activity against Agrobacterium tumefaciens B6-induced tumor formation at 1.5 ug/disk after 12 days by potato disk assay. To be noted: B6, 288 h.

The results in this text go back to ChEMBL document CHEMBL1151404, “Modification and evaluation of the potato disc assay and antitumor screening of euphorbiaceae seeds” (1982).

Usually inhibition stands for the relative decrease from the control value, in per cent. In general, T/C refers to the ratio of treated to control. For `CC[C@]1(O)C[C@H]2CN(CCc3c([nH]c4ccccc34)[C@@](C(=O)OC)(c3cc4c(cc3OC)N(C=O)[C@H]3[C@@](O)(C(=O)OC)[C@H](OC(C)=O)[C@]5(CC)C=CCN6CC[C@]43[C@@H]65)C2)C1` [VINCRISTINE], the inhibition at 10 µg/disc in assay [1] was -44%. For the same molecule, the inhibition at 5 µg/disc in assay [2] is -36%. The inhibition at 2.5 µg/disc in assay [3] was -17%. Further, the T/C with P388 is recorded as 242%.
The corresponding values for `COc1ccc(C[C@H]2C(=O)N[C@@H](C)C(=O)N(C)[C@@H]3C(=O)N(C)[C@@H](Cc4ccc(O)c(c4)Oc4ccc(cc4)[C@@H]3O)C(=O)N[C@@H](C)C(=O)N[C@@H](C)C(=O)N2C)cc1` [BOUVARDIN] are -40%, -15%, 14% and 188%.
The corresponding values for `COC(=O)C[C@](O)(CCCC(C)(C)O)C(=O)O[C@@H]1C(OC)=C[C@]23CCCN2CCc2cc4c(cc2[C@H]13)OCO4` [OMACETAXINE MEPESUCCINATE] are -79%, -64%, -72% and 238%.
Consider `COc1cc2cc(c1Cl)N(C)C(=O)C[C@H](OC(=O)[C@H](C)N(C)C(=O)C(C)C)[C@]1(C)O[C@H]1[C@H](C)[C@@H]1C[C@@](O)(NC(=O)O1)[C@H](OC)/C=C/C=C(\C)C2OC` (some centres not stated) [TREWIASINE], for which the inhibition at 10 µg/disc in assay [1] was -100%. For the same molecule, in assay [2], the inhibition at 5 µg/disc was -100%. The inhibition at 2.5 µg/disc in assay [3] was -100%. The inhibition at 1.5 µg/disc in assay [4] was -100%. Besides, in the assay with P388, the T/C was 168%.
